Experimental data as given in US9738668B2.

Key:
cells = assay: MTT reduction assay (cell survival and toxicity); format: cell-based; settings: 1, 10, 50, 100 μM, 48 to 66 hours
Procedure: The MTT (3-(4,5-dimethylthiazol-2-yl)-2,5-diphenyltetrazolium bromide) assay, which is widely used to measure cell proliferation and to screen for anticancer drugs, was used for assessing cell viability. Cells were treated with a range of ABAD compounds at 1, 10, 50, and 100 μM for 48 hours and then subjected to MTT reduction assay following the manufacture's instruction.
The effect of ABAD inhibitors on cell viability and toxicity was assessed using MTT reduction assay and trypan blue exclusion, which are widely used to assess cell survival and toxicity and to screen for drugs toxicity. Cells were treated with a range of concentrations of ABAD compound (4 and 8) at 1, 10, 50, 100 μM for 48 to 66 hours.

[1] = Pharmacokinetic study and BBB penetration, LC-MS/MS of plasma and brain; format: in vivo, C57BL6 mice; settings: mice, intravenous 10 mg/kg
Procedure: Using the validated LCMS/MS method, blood and brain levels of 4, 8, and 15 were measured in male and female C57BL6 mice (8-10 week-old, weighing approximately 25-30 grams). The mice were housed in a room with controlled temperature (23±3° C.) and moisture level (55±15% relative humidity) and exposed to a controlled 12 hour light/12 hour dark cycle. They were allowed to access to food and water ad libitum. Mice were fasted for 6 hours with free access to water prior to the pharmacokinetic study. To determine the time course of compounds 4, 8, and 15 action in the brain, the plasma pharmacokinetics and BBB penetration capability of the inhibitors were investigated. In these experiments, compounds 4, 8, and 15 were administered to mice by intravenous injection at a dosage of 10 mg/kg. Blood and brain samples were collected from mouse at each time point (2, 5, 10, 30, 60, 120, 240, 360, 720, 1440, and 2880 minutes), a total of 11 time points. For plasma measurements, blood (approximately 500-800 μl) was collected via cardiac-puncture into tubes containing sodium heparin anti-coagulant. Plasma was separated via centrifugation (4° C., 3500 rpm, 10 minutes) and stored in −80° C. freezer. For qualitative confirmations of these compounds in CSF, samples were collected at 2 time points (240 and 1440 min) from five animals at each time point. At the time of measurement, frozen plasma samples were thawed at room temperature and vortexed thoroughly. The following quantities were estimated using non-compartmental calculations performed with WINNONLIN 5.2 (Pharsight, Sunnyvale, Calif.): the area under the plasma concentration-time curve during the period of observation (AUC0-τ); the area under the plasma concentration-time curve from zero to infinity (AUC0-∞); the maximum plasma concentration (Cmax); the time to reach Cmax (Tmax); and the half-life (t1/2).
The LC-MS/MS method described above was used for the determination of 4, 8 and 15 in plasma, brain, and CSF for pharmacokinetic study. Based on the initial concentration data, the pharmacokinetic parameters including the area under the plasma concentration-time curve during the period of observation (AUC0-t), the area under the plasma concentration-time curve from zero to infinity (AUC0-∞) the maximum plasma concentration (Cmax) the time to reach Cmax (Tmax) and the half-life (t1/2) are shown in Table 8.

ABAD = format: biochemical
Procedure: Before the assay, all the assay components except SAAC were pre-incubated for 5 minutes, and the reaction started with the addition of SAAC into the reaction mix. The reaction was carried out for a total 6 minutes at room temperature under steady-state conditions, and the decrease of NADH absorbance at 340 nm was determined every 10 seconds. Kinetic data were analyzed by PRISM (Scitech, San Diego, Calif.) to determine IC50 values and Ki. One unit of enzyme activity was defined as that which converted 1.0 μmol of substrate to product per minute.

SMILES	MTT reduction (cells)	t1/2 ([1]; Brain)	t1/2 ([1]; Plasma)	inhibitory effect on SAAC reduction by ABAD (ABAD)
COc1ccc2nc(N[C@@H](c3ccc(O)cc3)P(=O)(OC)OC)sc2c1 (racemic) [Compound 8, Dimethyl ((4-hydroxyphenyl)((6-methoxybenzo[d]thiazol-2-yl)amino)methyl)phosphonate]	did not exhibit decreased MTT reduction	8.3 h	5.5 h	–
COC(=O)c1cc([C@H](Nc2nc3ccc(OC)cc3s2)P(=O)(OC)OC)ccc1O [Compound 4, Methyl 5-((dimethoxyphosphoryl)((6-methoxybenzo[d]thiazol-2-yl)amino)methyl)-2-hydroxybenzoate]	did not exhibit decreased MTT reduction	17.1 h	6.2 h	modest inhibitory effect
